PubChem BioAssay (NCI)
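Grown in 96-well plates, cells were treated for 48 hours with each compound at five concentrations. Insufficient inhibition: endpoint recorded as highest concentration tested. TGI denotes the concentration required for complete inhibition of growth.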

Tests used:
Assay in all cases: NCI tumour cell line growth inhibition, 48 h
NCI/ADR-RES ovarian = tested on: NCI/ADR-RES ovarian
BT-549 breast = tested on: BT-549 breast
OVCAR-5 ovarian = tested on: OVCAR-5 ovarian
IGROV1 ovarian = tested on: IGROV1 ovarian
HCT-116 colon = tested on: HCT-116 colon
SK-MEL-5 melanoma = tested on: SK-MEL-5 melanoma
U251 CNS = tested on: U251 CNS
OVCAR-4 ovarian = tested on: OVCAR-4 ovarian
MDA-N = tested on: MDA-N
OVCAR-8 ovarian = tested on: OVCAR-8 ovarian
KM12 colon = tested on: KM12 colon
SK-MEL-28 melanoma = tested on: SK-MEL-28 melanoma
P388/ADR leukemia = tested on: P388/ADR leukemia
MALME-3M melanoma = tested on: MALME-3M melanoma
KM20L2 colon = tested on: KM20L2 colon
UACC-62 melanoma = tested on: UACC-62 melanoma
SN12K1 renal = tested on: SN12K1 renal
MCF7 breast = tested on: MCF7 breast
MOLT-4 leukemia = tested on: MOLT-4 leukemia
XF 498 CNS = tested on: XF 498 CNS
HOP-62 NSCLC = tested on: HOP-62 NSCLC
MDA-MB-231 breast = tested on: MDA-MB-231 breast
RPMI-8226 leukemia = tested on: RPMI-8226 leukemia
UO-31 renal = tested on: UO-31 renal
SN12C renal = tested on: SN12C renal
DMS 114 small cell lung = tested on: DMS 114 small cell lung
CCRF-CEM leukemia = tested on: CCRF-CEM leukemia
SF-539 CNS = tested on: SF-539 CNS
T-47D breast = tested on: T-47D breast
SW-620 colon = tested on: SW-620 colon
DU-145 prostate = tested on: DU-145 prostate
P388 leukemia = tested on: P388 leukemia
A549 NSCLC = tested on: A549 NSCLC
NCI-H460 lung = tested on: NCI-H460 lung
SNB-75 CNS = tested on: SNB-75 CNS
ACHN renal = tested on: ACHN renal
LOX IMVI melanoma = tested on: LOX IMVI melanoma
HOP-18 NSCLC = tested on: HOP-18 NSCLC
M19-MEL melanoma = tested on: M19-MEL melanoma
NCI-H522 lung = tested on: NCI-H522 lung
HCC-2998 colon = tested on: HCC-2998 colon
EKVX NSCLC = tested on: EKVX NSCLC
COLO 205 colon = tested on: COLO 205 colon
SF-268 CNS = tested on: SF-268 CNS
SNB-78 CNS = tested on: SNB-78 CNS
RXF 393 renal = tested on: RXF 393 renal
HS 578T breast = tested on: HS 578T breast
SK-OV-3 ovarian = tested on: SK-OV-3 ovarian
HT29 colon = tested on: HT29 colon
NCI-H23 lung = tested on: NCI-H23 lung
HOP-92 NSCLC = tested on: HOP-92 NSCLC
SF-295 CNS = tested on: SF-295 CNS
786-0 renal = tested on: 786-0 renal
MDA-MB-435 = tested on: MDA-MB-435
CAKI-1 renal = tested on: CAKI-1 renal
OVCAR-3 ovarian = tested on: OVCAR-3 ovarian
UACC-257 melanoma = tested on: UACC-257 melanoma
DMS 273 small cell lung = tested on: DMS 273 small cell lung
SNB-19 CNS = tested on: SNB-19 CNS
M14 melanoma = tested on: M14 melanoma
TK-10 renal = tested on: TK-10 renal
PC-3 prostate = tested on: PC-3 prostate
A498 renal = tested on: A498 renal
HL-60(TB) leukemia = tested on: HL-60(TB) leukemia
K-562 leukemia = tested on: K-562 leukemia
SR leukemia = tested on: SR leukemia
DLD-1 colon = tested on: DLD-1 colon
SK-MEL-2 melanoma = tested on: SK-MEL-2 melanoma
NCI-H226 lung = tested on: NCI-H226 lung
HCT-15 colon = tested on: HCT-15 colon
RXF-631 renal = tested on: RXF-631 renal
LXFL 529 NSCLC = tested on: LXFL 529 NSCLC

CNC=O
TGI (NCI/ADR-RES ovarian): > 10000 µM | TGI (BT-549 breast): > 10000 µM | TGI (OVCAR-5 ovarian): > 10000 µM | TGI (IGROV1 ovarian): > 10000 µM | TGI (HCT-116 colon): > 10000 µM | TGI (SK-MEL-5 melanoma): > 10000 µM | TGI (U251 CNS): > 10000 µM | TGI (OVCAR-4 ovarian): > 10000 µM | TGI (MDA-N): > 10000 µM | TGI (OVCAR-8 ovarian): > 10000 µM | TGI (KM12 colon): > 10000 µM | TGI (SK-MEL-28 melanoma): > 10000 µM | TGI (P388/ADR leukemia): > 10000 µM | TGI (MALME-3M melanoma): > 10000 µM | TGI (KM20L2 colon): > 10000 µM | TGI (UACC-62 melanoma): > 9810 µM | TGI (SN12K1 renal): > 10000 µM | TGI (MCF7 breast): > 10000 µM | TGI (MOLT-4 leukemia): > 10000 µM | TGI (XF 498 CNS): > 10000 µM | TGI (HOP-62 NSCLC): < 3980 µM | TGI (MDA-MB-231 breast): > 10000 µM | TGI (RPMI-8226 leukemia): > 10000 µM | TGI (UO-31 renal): > 10000 µM | TGI (SN12C renal): > 7740 µM | TGI (DMS 114 small cell lung): > 10000 µM | TGI (CCRF-CEM leukemia): > 10000 µM | TGI (SF-539 CNS): > 10000 µM | TGI (T-47D breast): > 10000 µM | TGI (SW-620 colon): > 10000 µM | TGI (DU-145 prostate): > 10000 µM | TGI (P388 leukemia): > 5620 µM | TGI (A549 NSCLC): > 10000 µM | TGI (NCI-H460 lung): > 10000 µM | TGI (SNB-75 CNS): > 10000 µM | TGI (ACHN renal): > 10000 µM | TGI (LOX IMVI melanoma): > 10000 µM | TGI (HOP-18 NSCLC): > 10000 µM | TGI (M19-MEL melanoma): > 10000 µM | TGI (NCI-H522 lung): > 10000 µM | TGI (HCC-2998 colon): < 3980 µM | TGI (EKVX NSCLC): > 10000 µM | TGI (COLO 205 colon): > 10000 µM | TGI (SF-268 CNS): > 10000 µM | TGI (SNB-78 CNS): > 10000 µM | TGI (RXF 393 renal): > 10000 µM | TGI (HS 578T breast): > 10000 µM | TGI (SK-OV-3 ovarian): < 3980 µM | TGI (HT29 colon): > 10000 µM | TGI (NCI-H23 lung): > 10000 µM | TGI (HOP-92 NSCLC): > 10000 µM | TGI (SF-295 CNS): > 10000 µM | TGI (786-0 renal): > 10000 µM | TGI (MDA-MB-435): > 10000 µM | TGI (CAKI-1 renal): > 10000 µM | TGI (OVCAR-3 ovarian): > 10000 µM | TGI (UACC-257 melanoma): > 10000 µM | TGI (DMS 273 small cell lung): > 10000 µM | TGI (SNB-19 CNS): > 10000 µM | TGI (M14 melanoma): > 10000 µM | TGI (TK-10 renal): > 10000 µM | TGI (PC-3 prostate): > 10000 µM | TGI (A498 renal): > 10000 µM | TGI (HL-60(TB) leukemia): > 10000 µM | TGI (K-562 leukemia): > 10000 µM | TGI (SR leukemia): > 10000 µM | TGI (DLD-1 colon): > 10000 µM | TGI (SK-MEL-2 melanoma): > 10000 µM | TGI (NCI-H226 lung): > 10000 µM | TGI (HCT-15 colon): > 10000 µM

C/C(=C1/N=C(c2cc([N+](=O)[O-])ccc2Cl)N(C2=CC=C(Cl)CC2)C1=O)c1cc2ccccc2oc1=O
TGI (OVCAR-5 ovarian): > 100 µM | TGI (IGROV1 ovarian): > 100 µM | TGI (HCT-116 colon): > 100 µM | TGI (SK-MEL-5 melanoma): > 100 µM | TGI (U251 CNS): > 100 µM | TGI (OVCAR-4 ovarian): > 100 µM | TGI (OVCAR-8 ovarian): > 100 µM | TGI (KM12 colon): > 100 µM | TGI (SK-MEL-28 melanoma): > 100 µM | TGI (MALME-3M melanoma): > 100 µM | TGI (KM20L2 colon): > 100 µM | TGI (UACC-62 melanoma): > 100 µM | TGI (MOLT-4 leukemia): > 100 µM | TGI (HOP-62 NSCLC): > 100 µM | TGI (RPMI-8226 leukemia): > 100 µM | TGI (UO-31 renal): > 100 µM | TGI (SN12C renal): > 100 µM | TGI (DMS 114 small cell lung): > 100 µM | TGI (CCRF-CEM leukemia): > 100 µM | TGI (SF-539 CNS): > 100 µM | TGI (SW-620 colon): > 100 µM | TGI (A549 NSCLC): > 100 µM | TGI (NCI-H460 lung): > 100 µM | TGI (SNB-75 CNS): > 100 µM | TGI (ACHN renal): > 100 µM | TGI (LOX IMVI melanoma): > 100 µM | TGI (HOP-18 NSCLC): > 100 µM | TGI (M19-MEL melanoma): > 100 µM | TGI (NCI-H522 lung): > 100 µM | TGI (HCC-2998 colon): > 100 µM | TGI (EKVX NSCLC): > 100 µM | TGI (COLO 205 colon): > 100 µM | TGI (SF-268 CNS): > 100 µM | TGI (SNB-78 CNS): > 100 µM | TGI (SK-OV-3 ovarian): > 100 µM | TGI (HT29 colon): > 100 µM | TGI (NCI-H23 lung): 58.8 µM | TGI (SF-295 CNS): > 100 µM | TGI (CAKI-1 renal): > 100 µM | TGI (RXF-631 renal): > 100 µM | TGI (OVCAR-3 ovarian): > 100 µM | TGI (UACC-257 melanoma): > 100 µM | TGI (SNB-19 CNS): > 100 µM | TGI (M14 melanoma): > 100 µM | TGI (A498 renal): > 100 µM | TGI (HL-60(TB) leukemia): > 100 µM | TGI (LXFL 529 NSCLC): > 100 µM | TGI (K-562 leukemia): > 100 µM | TGI (SR leukemia): > 100 µM | TGI (DLD-1 colon): > 100 µM | TGI (NCI-H226 lung): > 100 µM

O=C(c1ccc(NCN2C(=O)CCC2=O)cc1)c1ccc(NCN2C(=O)CCC2=O)cc1
TGI (OVCAR-5 ovarian): > 100 µM | TGI (IGROV1 ovarian): > 100 µM | TGI (HCT-116 colon): > 100 µM | TGI (SK-MEL-5 melanoma): > 100 µM | TGI (U251 CNS): > 100 µM | TGI (OVCAR-4 ovarian): > 100 µM | TGI (OVCAR-8 ovarian): > 100 µM | TGI (KM12 colon): > 100 µM | TGI (SK-MEL-28 melanoma): > 100 µM | TGI (MALME-3M melanoma): > 100 µM | TGI (KM20L2 colon): > 100 µM | TGI (UACC-62 melanoma): > 100 µM | TGI (MOLT-4 leukemia): > 100 µM | TGI (XF 498 CNS): > 100 µM | TGI (HOP-62 NSCLC): > 100 µM | TGI (RPMI-8226 leukemia): 43.9 µM | TGI (UO-31 renal): > 100 µM | TGI (SN12C renal): > 100 µM | TGI (CCRF-CEM leukemia): > 100 µM | TGI (SF-539 CNS): > 100 µM | TGI (SW-620 colon): > 100 µM | TGI (A549 NSCLC): > 100 µM | TGI (NCI-H460 lung): > 100 µM | TGI (ACHN renal): > 100 µM | TGI (LOX IMVI melanoma): > 100 µM | TGI (M19-MEL melanoma): > 100 µM | TGI (NCI-H522 lung): > 100 µM | TGI (HCC-2998 colon): > 100 µM | TGI (EKVX NSCLC): > 100 µM | TGI (COLO 205 colon): > 100 µM | TGI (SF-268 CNS): > 100 µM | TGI (SNB-78 CNS): > 100 µM | TGI (RXF 393 renal): > 100 µM | TGI (HT29 colon): > 100 µM | TGI (NCI-H23 lung): > 100 µM | TGI (HOP-92 NSCLC): > 100 µM | TGI (SF-295 CNS): > 100 µM | TGI (786-0 renal): > 100 µM | TGI (RXF-631 renal): > 100 µM | TGI (OVCAR-3 ovarian): > 100 µM | TGI (UACC-257 melanoma): 84.6 µM | TGI (DMS 273 small cell lung): > 100 µM | TGI (SNB-19 CNS): > 100 µM | TGI (M14 melanoma): > 100 µM | TGI (TK-10 renal): > 100 µM | TGI (HL-60(TB) leukemia): 49.5 µM | TGI (LXFL 529 NSCLC): > 100 µM | TGI (K-562 leukemia): > 100 µM | TGI (DLD-1 colon): > 100 µM | TGI (SK-MEL-2 melanoma): > 100 µM | TGI (HCT-15 colon): > 100 µM
